From patent US12545673B2, “Imidazopyridine derivative and pharmaceutical composition comprising same as active ingredient” (TSD LIFE SCIENCES CO., LTD., priority 2019, dated 2026)
Where two headings read alike, the source gives them in different places.

What was measured:
MLK1 = MLK1 (Homo sapiens (Human), UniProt P80192); experiment: Evaluation of inhibitory activity of enzyme units, MLK1 ([γ-33P]-ATP filter assay); format: biochemical
MLK3 = MLK3 (Homo sapiens (Human), UniProt Q16584); experiment: Evaluation of inhibitory activity of enzyme units, MLK3 ([γ-33P]-ATP filter assay); details: read-out: IC50(nM) MLK3
[1] = tested on: acute myeloid leukemia cell line U937; experiment: Cancer cell proliferation inhibitory activity evaluation 2 (CCK-8), U937; format: cell-based; details: Homo sapiens, read-out: Cancer cell proliferation inhibitory activity U937
Protocol: (§1) In order to identify whether the compounds have anticancer activity, the acute myeloid leukemia cell line U937, the acute lymphoblastic leukemia cell line Jurkat, the gastric cancer cell lines AGS, […], and the human lung cancer cell line A549 were used. The cell line was cultured using RPMI-1640 medium (U937, Jurkat, AGS, A549) or DMEM (Hs746T) medium containing 10% fetal bovine serum. Welgene products were used as the medium, and hyclone products were used for fetal bovine serum, and 1% of antibiotics for cell culture from Gibco were used as the culture medium.

[2] = tested on: gastric cancer cell line Hs746T; experiment: Cancer cell proliferation inhibitory activity evaluation 2 (CCK-8), Hs746T; format: cell-based; details: Homo sapiens
Protocol: as §1

[3] = tested on: acute lymphoblastic leukemia cell line Jurkat; experiment: Cancer cell proliferation inhibitory activity evaluation 2 (CCK-8), Jurkat; format: cell-based; details: Homo sapiens
Protocol: as §1

[4] = tested on: human lung cancer cell line A549; experiment: Cancer cell proliferation inhibitory activity evaluation 2 (CCK-8), A549; format: cell-based
Protocol: as §1

[5] = tested on: gastric cancer cell line AGS; experiment: Cancer cell proliferation inhibitory activity evaluation 2 (CCK-8), AGS; format: cell-based; details: Homo sapiens, read-out: Cancer cell proliferation inhibitory activity AGS
Protocol: as §1

[6] = U-937, 10 μM, 72 hours, CCK-8 (Table 3)
[7] = 10 μM, 72 hours, CCK-8, read-out: Cancer cell proliferation inhibitory activity Hs746T
[8] = 10 μM, 72 hours, CCK-8, read-out: Cancer cell proliferation inhibitory activity Jurkat
[9] = A549, 10 μM, 72 hours, CCK-8, read-out: Cancer cell proliferation inhibitory activity A549
[10] = 72 h, read-out: Cancer cell proliferation inhibitory activity Hs746T
[11] = 72 h, read-out: Cancer cell proliferation inhibitory activity Jurkat
[12] = A549, 72 h, read-out: Cancer cell proliferation inhibitory activity A549

Chain of MLK3 (Q16584 whole entry, looked up): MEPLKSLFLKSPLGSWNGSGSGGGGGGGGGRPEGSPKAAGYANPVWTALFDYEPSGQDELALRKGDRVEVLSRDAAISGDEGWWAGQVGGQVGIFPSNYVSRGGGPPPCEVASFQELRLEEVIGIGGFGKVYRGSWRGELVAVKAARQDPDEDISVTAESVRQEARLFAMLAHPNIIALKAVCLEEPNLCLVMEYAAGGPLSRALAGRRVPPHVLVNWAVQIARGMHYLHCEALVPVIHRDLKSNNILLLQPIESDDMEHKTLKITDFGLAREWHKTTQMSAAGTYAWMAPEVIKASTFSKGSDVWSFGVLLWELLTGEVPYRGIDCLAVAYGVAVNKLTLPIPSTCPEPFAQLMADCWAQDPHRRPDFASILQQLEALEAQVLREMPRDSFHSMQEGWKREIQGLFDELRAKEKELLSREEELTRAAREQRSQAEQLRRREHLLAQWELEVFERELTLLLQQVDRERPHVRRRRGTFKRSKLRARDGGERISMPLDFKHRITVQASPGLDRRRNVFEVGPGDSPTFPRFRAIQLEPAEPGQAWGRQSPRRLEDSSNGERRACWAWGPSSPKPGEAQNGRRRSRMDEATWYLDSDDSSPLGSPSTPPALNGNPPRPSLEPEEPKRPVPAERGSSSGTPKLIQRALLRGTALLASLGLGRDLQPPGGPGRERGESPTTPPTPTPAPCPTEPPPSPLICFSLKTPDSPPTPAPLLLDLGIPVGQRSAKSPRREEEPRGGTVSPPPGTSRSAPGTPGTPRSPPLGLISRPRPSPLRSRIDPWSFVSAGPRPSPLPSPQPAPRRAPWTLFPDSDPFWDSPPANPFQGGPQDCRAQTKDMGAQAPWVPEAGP
Chain of MLK1 (P80192 whole entry, looked up): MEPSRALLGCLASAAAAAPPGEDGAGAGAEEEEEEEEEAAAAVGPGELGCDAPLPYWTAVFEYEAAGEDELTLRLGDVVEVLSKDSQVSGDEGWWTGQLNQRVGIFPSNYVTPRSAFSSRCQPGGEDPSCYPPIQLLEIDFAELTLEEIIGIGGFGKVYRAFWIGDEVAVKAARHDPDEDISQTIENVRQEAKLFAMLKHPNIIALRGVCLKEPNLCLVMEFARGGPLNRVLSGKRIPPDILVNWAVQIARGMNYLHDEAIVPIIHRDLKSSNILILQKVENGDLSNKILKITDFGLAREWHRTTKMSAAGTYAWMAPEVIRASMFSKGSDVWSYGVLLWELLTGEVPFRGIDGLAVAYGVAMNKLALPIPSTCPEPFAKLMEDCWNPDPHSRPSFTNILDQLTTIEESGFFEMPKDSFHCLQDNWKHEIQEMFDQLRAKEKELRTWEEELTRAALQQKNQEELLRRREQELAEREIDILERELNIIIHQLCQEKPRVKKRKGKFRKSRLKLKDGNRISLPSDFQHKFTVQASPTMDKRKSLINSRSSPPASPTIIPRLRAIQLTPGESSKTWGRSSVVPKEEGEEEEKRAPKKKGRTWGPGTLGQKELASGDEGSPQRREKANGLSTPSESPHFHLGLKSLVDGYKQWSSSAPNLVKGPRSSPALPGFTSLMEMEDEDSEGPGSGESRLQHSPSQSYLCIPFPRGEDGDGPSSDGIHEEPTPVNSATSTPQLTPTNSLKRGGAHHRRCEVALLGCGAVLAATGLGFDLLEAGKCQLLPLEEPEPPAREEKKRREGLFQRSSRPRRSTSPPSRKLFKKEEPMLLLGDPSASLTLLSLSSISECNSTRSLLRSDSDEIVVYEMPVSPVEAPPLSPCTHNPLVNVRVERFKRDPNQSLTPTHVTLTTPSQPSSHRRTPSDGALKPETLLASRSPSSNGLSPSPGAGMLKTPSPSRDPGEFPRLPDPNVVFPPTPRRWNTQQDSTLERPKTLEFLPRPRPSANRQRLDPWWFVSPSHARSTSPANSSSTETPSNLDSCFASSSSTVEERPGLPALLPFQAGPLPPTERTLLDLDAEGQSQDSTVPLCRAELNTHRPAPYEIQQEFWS

Structure (SMILES) | IC50 (MLK1) [nM] | IC50 (MLK3) [nM] | inhibition at 10 µM [1, 6] [%] | inhibition at 10 µM [2, 7] [%] | inhibition at 10 µM [3, 8] [%] | inhibition at 10 µM [4, 9] [%] | inhibition at 10 µM ([5]; 10 μM, 72 hours, CCK-8) [%] | inhibition at 10 µM ([1]; U-937, 72 h) [%] | inhibition at 10 µM [2, 10] [%] | inhibition at 10 µM [3, 11] [%] | inhibition at 10 µM [4, 12] [%] | inhibition at 10 µM ([5]; 72 h) [%]
CCS(=O)(=O)N1CC[C@H](Nc2c(Br)cnc3[nH]c(-c4cc(C)n(-c5ccc(C(=O)NCCN6CCOCC6)cc5)c4C)nc23)C1 [Example 70, (S)-4-(3-(6-bromo-7-((1-(ethylsulfonyl)pyrrolidine-3-yl)amino)-3H-imidazo[4,5-b]pyridine-2-yl)-2,5-dimethyl-1H-pyrrol-1-yl)-N-(2-morpholinoethyl)benzamide] | 36 | 18 | > 50 | 10 to 50 | > 50 | 10 to 50 | > 50 |  |  |  |  | 
CCS(=O)(=O)N1CC[C@H](Nc2c(Br)cnc3[nH]c(-c4cc(C)n(-c5cccc(C(=O)NCCN6CCN(C)CC6)c5)c4C)nc23)C1 [Example 71, (S)-3-(3-(6-bromo-7-((1-(ethylsulfonyl)pyrrolidine-3-yl)amino)-3H-imidazo[4,5-b]pyridine-2-yl)-2,5-dimethyl-1H-pyrrol-1-yl)-N-(2-(4-methylpiperazine-1-yl)ethyl)benzamide] | 36 | 26 |  |  |  |  |  | 10 to 50 | > 50 | > 50 | < 10 | > 50
CCS(=O)(=O)N1CC[C@H](Nc2c(Br)cnc3[nH]c(-c4cc(C)n(-c5ccc(C(=O)NCCN6CCN(C)CC6)cc5)c4C)nc23)C1 [Example 72, (S)-4-(3-(6-bromo-7-((1-(ethylsulfonyl)pyrrolidine-3-yl)amino)-3H-imidazo[4,5-b]pyridine-2-yl)-2,5-dimethyl-1H-pyrrol-1-yl)-N-(2-(4-methylpiperazine-1-yl)ethyl)benzamide] | 25 | 15 |  |  |  |  |  | > 50 | > 50 | > 50 | 10 to 50 | > 50
CCS(=O)(=O)N1CC[C@H](Nc2c(Br)cnc3nc(-c4cc(C)n(-c5cc(NC(=O)CN(C)C)ccc5C)c4C)[nH]c23)C1 [Example 74, N-(3-(3-(6-bromo-7-(((S)-1-(ethylsulfonyl)pyrrolidine-3-yl)amino)-1H-imidazo[4,5-b]pyridine-2-yl)-2,5-dimethyl-1H-pyrrol-1-yl)-4-methylphenyl)-2-(dimethylamino) acetamide] | 43 | 46 | > 50 | > 50 | > 50 | > 50 | > 50 |  |  |  |  | 
CCS(=O)(=O)N1CC[C@H](Nc2c(Br)cnc3nc(-c4cc(C)n(-c5ccc(NC(=O)CN6CCN(C)CC6)cc5C)c4C)[nH]c23)C1 [Example 75, N-(4-(3-(6-bromo-7-(((S)-1-(ethylsulfonyl)pyrrolidine-3-yl)amino)-1H-imidazo[4,5-b]pyridine-2-yl)-2,5-dimethyl-1H-pyrrol-1-yl)-3-methylphenyl)-2-(4-methylpiperazine-1-yl) acetamide] | 30 | 16 |  |  |  |  |  | > 50 | > 50 | > 50 | > 50 | > 50
CCS(=O)(=O)N1CC[C@H](Nc2c(Br)cnc3nc(-c4cc(C)n(-c5ccc(NC(=O)CN6CCOCC6)cc5C)c4C)[nH]c23)C1 [Example 77, N—(4-(3-(6-bromo-7-(((S)-1-(ethylsulfony)pyrolidine-3-yl)amino)-1H-imidazo[4,5-b]pyridine-2-yl)-2,5-dimethyl-1H-pyrrol-1-yl)-3-methylphenyl)-2-morpholinoacetamide] | 19 | 7 | > 50 | 10 to 50 | > 50 | 10 to 50 | > 50 |  |  |  |  | 
CCS(=O)(=O)N1CC[C@H](Nc2c(Br)cnc3nc(-c4cc(C)n(-c5cc(NC(=O)CN6CCOCC6)ccc5C)c4C)[nH]c23)C1 [Example 78, N-(3-(3-(6-bromo-7-(((S)-1-(ethylsulfonyl)pyrrolidine-3-yl)amino)-1H-imidazo[4,5-b]pyridine-2-yl)-2,5-dimethyl-1H-pyrrol-1-yl)-4-methylphenyl)-2-morpholinoacetamide] | 25 | 47 |  |  |  |  |  | > 50 | > 50 | > 50 | > 50 | > 50
CCS(=O)(=O)N1CC[C@H](Nc2c(Br)cnc3nc(-c4cc(C)n(-c5cccc(NC(=O)CCN(C)C)c5C)c4C)[nH]c23)C1 [Example 79] | 35 | 7 |  |  |  |  |  | > 50 | > 50 | > 50 | > 50 | > 50
CCS(=O)(=O)N1CC[C@H](Nc2c(Br)cnc3nc(-c4cc(C)n(-c5cccc(C(=O)N6CCOCC6)c5C)c4C)[nH]c23)C1 [Example 83, (3-(3-(6-bromo-7-(((S)-1-(ethylsulfonyl)pyrrolidine-3-yl)amino)-1H-imidazo[4,5-b]pyridine-2-yl)-2,5-dimethyl-1H-pyrrol-1-yl)-2-methylphenyl) (morpholino) methanone] | 22 | 12 |  |  |  |  |  | > 50 | > 50 | > 50 | 10 to 50 | > 50
CCS(=O)(=O)N1CC[C@H](Nc2c(Br)cnc3nc(-c4cc(C)n(-c5cccc(NC(=O)CN6CCN(C)CC6)c5C)c4C)[nH]c23)C1 [Example 87, N-(3-(3-(6-bromo-7-(((S)-1-(ethylsulfonyl)pyrrolidine-3-yl)amino)-1H-imidazo[4,5-b]pyridine-2-yl)-2,5-dimethyl-1H-pyrrol-1-yl)-2-methylphenyl)-2-(4-methylpiperazine-1-yl) acetamide] | 24 | 13 |  |  |  |  |  | > 50 | > 50 | > 50 | > 50 | > 50
Cc1ccc(NC(=O)CN2CCN(C)CC2)cc1-n1c(C)cc(-c2nc3ncc(Br)c(Nc4cccc(S(N)(=O)=O)c4)c3[nH]2)c1C [Example 89, N-(3-(3-(6-bromo-7-((3-sulfamoylphenyl)amino)-1H-imidazo[4,5-b]pyridine-2-yl)-2,5-dimethyl-1H-pyrrol-1-yl)-4-methylphenyl)-2-(4-methylpiperazine-1-yl) acetamide] | 169 | 81 | < 10 | 10 to 50 | 10 to 50 | < 10 | 10 to 50 |  |  |  |  | 
Cc1ccc(NC(=O)CN(C)C)cc1-n1c(C)cc(-c2nc3ncc(Br)c(Nc4cccc(S(N)(=O)=O)c4)c3[nH]2)c1C [Example 90, N-(3-(3-(6-bromo-7-((3-sulfamoylphenyl)amino)-1H-imidazo[4,5-b]pyridine-2-yl)-2,5-dimethyl-1H-pyrrol-1-yl)-4-methylphenyl)-2-(dimethylamino) acetamide] | 160 | 92 | 10 to 50 | 10 to 50 | > 50 | 10 to 50 | > 50 |  |  |  |  | 
